# Results taken from ChEMBL document CHEMBL1130436, “Synthesis and opioid activity of conformationally constrained dynorphin A analogues. 2. Conformational constraint in the "address" sequence” (J Med Chem, 1997).
# pIC50, pKi: −log10 of the molar value.
# How the values were obtained:
# Cavia porcellus = species: Cavia porcellus; experiment: Opioid activity in guinea pig ileum; format: functional
# [1] = target: Kappa-type opioid receptor (Cavia porcellus, UniProt P41144); experiment: Binding affinity of compound was measured on Opioid receptor kappa 1 by competitive inhibition of radioligand [3H]diprenorphine using cloned receptors transiently expressed on COS-7 (monkey kidney) cells; format: cell-based
# Mu-type opioid receptor = Mu-type opioid receptor (Cavia porcellus, UniProt P97266); experiment: Binding affinity of compound was measured on Opioid receptor mu 1 by competitive inhibition of radioligand [3H]DAMGO using cloned receptors transiently expressed on COS-7 (monkey kidney) cells; format: cell-based
# [2] = target: Delta-type opioid receptor (Homo sapiens, UniProt P41143); experiment: Binding affinity of compound was measured on Opioid receptor delta 1 by competitive inhibition of radioligand [3H]DPDPE using cloned receptors transiently expressed on COS-7 (monkey kidney) cells; format: cell-based
smiles,measurement,setting,value
CC[C@H](C)[C@H](NC(=O)[C@H](CCCNC(=N)N)NC(=O)[C@@H]1CCNC(=O)C[C@@H](NC(=O)CNC(=O)[C@@H](N)Cc2ccc(O)cc2)C(=O)N[C@@H](Cc2ccccc2)C(=O)N[C@@H](CC(C)C)C(=O)N1)C(=O)N[C@@H](CCCNC(=N)N)C(=O)N1CCC[C@H]1C(=O)N[C@@H](CCCCN)C(=O)N[C@@H](CC(C)C)C(=O)N[C@@H](CCCCN)C(N)=O,pIC50,Cavia porcellus,6.06
same,pKi,[1],6.57
same,pKi,Mu-type opioid receptor,6.68
same,pKi,[2],6.00
